Experiments:
older rats = assay: Elevated plus-maze, older rats fed QBA; format: in vivo, rat; settings: for Time (s) in Open Arm: rats 18 months old, 5-min test
Experimental: The dose-response characteristics of 10-Hydroxy-2-decenoic acid's (QBA's) potential brain health benefits during aging were assessed for mood in older rats (18-20 months old).
Rats were fed QBA and subjected to an elevated plus-maze. The elevated plus-maze was elevated ˜85 cm above the floor and consisted of two open and two closed arms of the same size (50×10 cm). The closed arms were surrounded by walls 40 cm high, and the arms were constructed of black acrylic slabs that radiated from a central platform (10×10 cm) to form a plus sign. Each rat was placed in the central platform facing one of the open arms, and its behavior was recorded during a 5-min testing period with video capture software. More time spent in the open arms is an indication of reduced anxiety-like state. Rats were tested at 18 months old (N=11-13 per group).

[1] = tested on: RAW264.7 mouse macrophage cell line; assay: TNFα levels after LPS stimulation; format: cell-based; settings: for TNFα (pg/mL)/Cell Numbers: 24 h
Experimental: Cultures of the RAW264.7 mouse macrophage cell line were pre-treated with 10-Hydroxy-2-decenoic acid (QBA) for 1 hour prior to stimulation with lipopolysaccharide (LPS, 100 ng/mL). After 24 hours of incubation, interleukin […] (IL-1β) and tumor necrosis factor-α (TNFα) levels were determined by Luminex technology and cell numbers were measured using Alamar Blue. Results are given as a ratio of cytokine concentration/cell number.

O=C(O)C=CCCCCCCCO [QBA, 10-Hydroxy-2-decenoic acid]
Time (s) in Open Arm (older rats; QBA 0.4 mg/kg/day): 48.5 s | Time (s) in Open Arm (older rats; QBA 4 mg/kg/day): 52.2 s | Time (s) in Open Arm (older rats; QBA 12 mg/kg/day): 37.1 s | anxiety as measured by the time in the open arms of the elevated plus maze (older rats; QBA 24 mg/kg/d, 15-18-month old male rats): decreased anxiety | Time (s) in Open Arm (older rats; QBA 24 mg/kg/day): 69.8 s | TNFα (pg/mL)/Cell Numbers ([1]; QBA 50 μM 1 h before LPS 100 ng/mL): 0.409 (pg/mL)/Cell Numbers | TNFα (pg/mL)/Cell Numbers ([1]; QBA 100 μM 1 h before LPS 100 ng/mL): 0.456 (pg/mL)/Cell Numbers | TNFα (pg/mL)/Cell Numbers ([1]; QBA 500 μM 1 h before LPS 100 ng/mL): 0.427 (pg/mL)/Cell Numbers | TNFα (pg/mL)/Cell Numbers ([1]; QBA 1000 μM 1 h before LPS 100 ng/mL): 0.261 (pg/mL)/Cell Numbers | TNFα (pg/mL)/Cell Numbers ([1]; QBA 2500 μM 1 h before LPS 100 ng/mL): 0.252 (pg/mL)/Cell Numbers | TNFα (pg/mL)/Cell Numbers ([1]; QBA 5000 μM 1 h before LPS 100 ng/mL): 0.150 (pg/mL)/Cell Numbers | production of TNFα in immune cells ([1]; summary of Table 10): reduced the production

— patent US10004711B2, “Methods and compositions comprising 10-hydroxy-2-decenoic acid” (DSM IP ASSETS B.V., priority 2014, dated 2018)
